Experimental data as given in patent US9822068B2, “Inhibitors of fatty acid amide hydrolase (FAAH) enzyme with improved oral bioavailability and their use as medicaments” (THE REGENTS OF THE UNIVERSITY OF CALIFORNIA, priority 2014, dated 2017).
In brackets after ≈: the same amount, converted by molar mass. Where two headings read alike, the source gives them in different places.

Assays:
[1] = Aqueous kinetic solubility assay; format: physicochemical; details: phosphate buffered saline, aqueous buffer, kinetic from dmso stock, PBS pH 7.4, target 250 μM, 2.5% DMSO, 25° C.
Protocol: Aqueous Kinetic Solubility Assay
The aqueous kinetic solubility was determined from a 10 mM DMSO stock solution of test compound in Phosphate Buffered Saline (PBS) at pH 7.4.
The study was performed by incubation of an aliquot of 10 mM DMSO stock solution in PBS (pH 7.4) at a target concentration of 250 μM resulting in a final concentration of 2.5% DMSO. The incubation was carried out under shaking at 25° C. for 24 h followed by centrifugation. The supernatant was analyzed by UPLC/MS for the quantification of dissolved compound by UV at a specific wavelength (215 nm).
The aqueous kinetic solubility (in μM) was calculated by dividing the peak area of the supernatant by the peak area of the test compound reference and further multiplied by the concentration of the test compound reference and dilution factor.
The UPLC/MS analyses were performed on a Waters ACQUITY UPLC/MS system consisting of a SQD (Single Quadrupole Detector) Mass Spectrometer equipped with an Electrospray Ionization interface and a Photodiode Array Detector. The PDA range was 210-400 nm. The analyses were run on an ACQUITY UPLC BEH C18 column (50×2.1 mmID, particle size 1.7 m) with a VanGuard BEH C18 pre-column (5×2.1 mmID, particle size 1.7 μm). The mobile phase was 10 mM NH4OAc in H2O at pH 5 adjusted with AcOH (A) and 10 mM NH4OAc in MeCN—H2O (95:5) at pH 5 (B). Electrospray ionization in positive and negative mode was applied in the mass scan range 100-500 Da.

[2] = Pharmacokinetic experiment in cannulated Sprague-Dawley rats (PO and IV); format: in vivo; details: plasma, rat; for bioavailability: PO 10 mg/kg vs IV 3 mg/kg, read-out: Oral bioavailability (F %)
Protocol: Pharmacokinetic Experiment and Analysis
Compounds were administered orally (PO) and intravenously (IV) to cannulated Sprague-Dawley rats at 10 and 3 mg/kg, respectively. Vehicle was: PEG400/Tween 80/Saline solution at 10/10/80 (% in volume), respectively. Three animals per dose were treated. Blood samples at 0, 15, 30, 60, 120, 240, 480 and 1440 min after administration were collected for PO arm. Blood samples at 0, 5, 15, 30, 60, 120 and 240 min after administration were collected for IV arm. Plasma was separated from blood by centrifugation for 15 min at 3500 rpm a 4° C., collected in a Eppendorf tube and frozen (−80° C.). Control animals treated with vehicle only were also included in the experimental protocol.
Preparation of Samples, Standard Curve and QC Samples for UPLC-MS Analysis
Samples were thawed in an ice bath and after a short centrifugation transferred (50 μL) into a 96-deepwell plate and added with 150 μL of acetonitrile spiked with 200 nM Warfarin (the Internal Standard, I.S.). After agitation (3 min) the plate was centrifuged at 3000 g for 10 min at 4° C. 80 μL of supernatant was then transferred in a 96-well plate and added with 80 μL of water. Standard compound was spiked in neat solvent (PBS pH 7.4 added with 10% acetonitrile) to prepare a calibration curve over the 1 nM-10 μM range. Three quality controls (QCs) samples were also prepared spiking the compound in blank rat plasma to final 20, 200 and 2000 nM concentrations. Calibrators and QCs were crashed with acetonitrile spiked with the I.S. as described for the plasma samples. Dosing solutions, previously diluted 2000 fold in the neat solvent were also included in the samples and tested.
Compounds plasma levels were monitored on a Xevo TQ UPLC-MS/MS system (Waters, Milford USA), using the calibration curve and the internal standard (Warfarin). Chromatography was carried out on a Acquity BEH C18 column (2.1×50 mmID, 1.7 m particle size, Waters, Milford USA). Flow rate was 0.5 mL/min. The mobile phase was (A) H2O/0.1% formic acid; (B) MeCN/0.1% formic acid. A linear gradient was applied from 5 to 100% B in 2 min. 3 μL of each sample were loaded on column. MS parameters and multiple reaction monitoring (MRM) transitions were carefully tuned for each compound. Plasma levels data were analyzed using PKSolutions excel application (Summit Research Service, USA) to derive the most important pharmacokinetic parameters.
The oral bioavailability (F %) data, and the Area Under the Curve (AUC) data (ng×min/mL) corresponding to the IV (3 mg/kg) and PO (10 mg/kg) dose of selected compounds described in the Examples are reported in Table 3. Their F % data are in the range from 35 to 87.

Rat FAAH = Rat FAAH (Rattus norvegicus (Rat), UniProt P97612); test: In vitro rat FAAH radiometric assay; format: biochemical; details: rat brain homogenate, 10 min pre-incubation at 37° C.; read-out: r-FAAH IC50
Rat FAAH, sequence (P97612 whole entry): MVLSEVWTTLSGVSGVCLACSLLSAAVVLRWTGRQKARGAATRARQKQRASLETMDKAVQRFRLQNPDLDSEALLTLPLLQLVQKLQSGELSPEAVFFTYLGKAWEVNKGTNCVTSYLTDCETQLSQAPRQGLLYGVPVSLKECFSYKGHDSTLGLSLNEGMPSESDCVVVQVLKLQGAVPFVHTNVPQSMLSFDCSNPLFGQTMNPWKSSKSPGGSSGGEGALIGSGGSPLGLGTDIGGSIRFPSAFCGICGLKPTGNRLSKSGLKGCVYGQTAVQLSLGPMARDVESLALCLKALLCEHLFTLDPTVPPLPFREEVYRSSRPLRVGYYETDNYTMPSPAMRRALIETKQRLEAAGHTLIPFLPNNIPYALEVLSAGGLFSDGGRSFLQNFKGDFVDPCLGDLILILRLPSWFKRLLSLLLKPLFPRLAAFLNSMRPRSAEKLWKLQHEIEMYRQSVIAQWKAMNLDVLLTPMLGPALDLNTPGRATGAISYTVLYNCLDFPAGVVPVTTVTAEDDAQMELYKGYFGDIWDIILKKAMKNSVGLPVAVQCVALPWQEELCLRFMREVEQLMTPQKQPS
Protocol: In Vitro Rat FAAH Radiometric Assay
Rat FAAH was prepared from male Sprague Dawley rat brains, homogenized in a potter in 20 mM of Tris HCl pH 7.4, 0.32 M sucrose.
The radiometric assay used to measure FAAH activity was performed in Eppendorf tubes: 50 μg of total rat brain homogenate were pre-incubated in 445.5 μL of assay buffer (50 mM Tris-HCl pH 7.4, 0.05% Fatty acid-free-bovine serum albumin (BSA)) with 4.5 μL of inhibitor (at appropriate concentration in DMSO) or DMSO alone (to measure FAAH total activity) for 10 min at 37° C. The blank (no activity control) was prepared using 445.5 μL of assay buffer and 4.5 μL of DMSO without the 50 μg of total rat brain homogenate.
After 10 min of pre-incubation with test compounds, the reaction was started by adding of 50 μL of substrate and incubating for 30 min at 37° C. The substrate was prepared in assay buffer in order to achieve the final concentration of 1 μM arachidonoyl ethanolamide (Cayman Chemical N. 90050) and 0.6 nM anandamide [ethanolamine-1-^3H] (American Radiolabeled Chemicals Inc, ART. 0626, Conc. 1 mCi/mL, S.A. 60 Ci/mmol). The reaction was stopped by adding cold 1:1 CHCl3/MeOH. After 10 min of centrifugation (845×g at 4° C.) 600 μL of aqueous phase were transferred into scintillation vials previously filled with 3 mL of scintillation fluid (Ultima Gold™, Perkin Elmer Inc., Cat. 6013329). Radioactivity was measured by liquid scintillation counting (MicroBeta2 LumiJET Perkin Elmer Inc.).
(§1) Concentrations causing half-maximal inhibition of FAAH, IC50 values, were determined by non-linear regression analysis of the Log [concentration]/response curves generated with mean replicate values using a four parameter Hill equation curve fitting with GraphPad Prism 5 (GraphPad Software Inc., CA—USA).

human FAAH-1 = human FAAH-1 (Homo sapiens (Human), UniProt O00519); test: In vitro human FAAH fluorescent assay; format: biochemical; details: human FAAH-1 membrane preparation from HEK-293, 50 min pre-incubation at 37° C.; read-out: h-FAAH IC50
human FAAH-1, sequence (O00519 whole entry): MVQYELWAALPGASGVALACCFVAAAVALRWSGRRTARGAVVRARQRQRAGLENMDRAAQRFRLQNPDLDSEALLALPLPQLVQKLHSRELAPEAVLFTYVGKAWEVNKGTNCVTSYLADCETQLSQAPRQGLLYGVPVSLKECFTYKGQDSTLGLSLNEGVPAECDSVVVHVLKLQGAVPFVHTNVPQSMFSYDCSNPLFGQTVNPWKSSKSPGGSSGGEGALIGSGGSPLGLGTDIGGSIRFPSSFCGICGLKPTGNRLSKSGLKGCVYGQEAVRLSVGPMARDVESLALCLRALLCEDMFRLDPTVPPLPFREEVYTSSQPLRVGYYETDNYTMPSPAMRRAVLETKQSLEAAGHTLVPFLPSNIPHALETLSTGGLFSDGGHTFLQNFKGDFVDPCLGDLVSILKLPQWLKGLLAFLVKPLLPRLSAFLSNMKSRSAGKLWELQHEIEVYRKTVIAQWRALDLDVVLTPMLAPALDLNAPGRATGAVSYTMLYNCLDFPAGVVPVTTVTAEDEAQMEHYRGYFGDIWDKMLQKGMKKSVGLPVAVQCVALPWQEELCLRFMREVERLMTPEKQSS
Protocol: In Vitro Human FAAH Fluorescent Assay
Human recombinant FAAH was obtained from a HEK-293 cell line stably overexpressing human FAAH-1 enzyme. Cells were grown in Dulbecco's Modified Eagle Medium (DMEM) medium containing 10% FBS, 1% pen/strep, 1% glutamine and 500 μg/mL G418. To obtain membrane preparation cells were scraped off with cold PBS and collected by centrifugation (500×g, 10 min, 4° C.); the cell pellet was re-suspended in 20 mM Tris-HCl pH 7.4, 0.32M sucrose, disrupted by sonication (10 pulses, 5 times) and centrifuged (800×g, 15 min, 4° C.); the collected supernatant was centrifuged at 105,000×g for 1 h at 4° C. and the pellet was re-suspended in PBS.
The fluorescent assay to measure FAAH activity was performed in 96 wells black plates: 2.5 μg of human FAAH-1 membrane preparation were pre-incubated for 50 min at 37° C., in 180 µL of assay buffer (50 mM TrisHCl pH 7.4, 0.05% Fatty acid-free-BSA) with 10 μL of inhibitor (at appropriate concentration in DMSO) or 10 μL DMSO to measure FAAH total activity. The background (no activity) samples were prepared using 180 μL of assay buffer without human FAAH-1 and 10 μL of DMSO. The reaction was then started by the addition of 10 μL of a 40 μM substrate solution (N. 10005098, Cayman Chemical) dissolved in ethanol, and used at a final concentration of 2 μM. The reaction was carried out for 30 min at 37° C. and fluorescence was measured with a Tecan Infinite M200 nanoquant plate reader (excitation wavelength 350 nm/emission wavelength 460 nm).
as §1

[3] = IV, 3 mg/kg, read-out: AUC IV (3 mg/kg) (converted)
[4] = PO, 10 mg/kg, read-out: AUC PO (10 mg/kg) (converted)

| Compound | solubility kinetic at 24 h [1] [µM] | bioavailability [2] [%] | AUC [2, 3] [ng·h/mL] | AUC [2, 4] [ng·h/mL] | IC50 (Rat FAAH) [nM] | IC50 (human FAAH-1) [nM] |
| --- | --- | --- | --- | --- | --- | --- |
| CNC(=O)c1cccc(-c2cccc(OC(=O)NC3CCCCC3)c2)c1 [[drawing 127] comparison compound, reference compound] | 18 (≈ 6.34 µg/mL) | 30 | 1520 | 1500 | – | – |
| NC(=O)c1cccc(-c2cc(OC(=O)NC3CCCCC3)ccc2OC(F)F)c1 [Example 8, [3-(3-carbamoylphenyl)-4-(difluoromethoxy)phenyl] N-cyclohexylcarbamate] | 44 (≈ 17.8 µg/mL) | 35 | 2110 | 2430 | 1.4 | 8.2 |
| NC(=O)c1cccc(-c2cccc(OC(=O)NC3CCCCC3)c2)c1 [[drawing 135] comparison compound, reference compound] | 1 (≈ 0.338 µg/mL) | 5 | 2560 | 446 | – | – |
| CNC(=O)c1cccc(-c2cc(OC(=O)NC3CCC3)ccc2F)c1 [Example 6, [4-fluoro-3-[3-(methylcarbamoyl)phenyl]phenyl] N-cyclobutylcarbamate] | 183 (≈ 62.7 µg/mL) | – | – | – | 5.1 | 6.6 |
| NC(=O)c1cccc(-c2cc(OC(=O)NC3CCC3)ccc2F)c1 [Example 3, [3-(3-carbamoylphenyl)-4-fluoro-phenyl] N-cyclobutylcarbamate] | 33 (≈ 10.8 µg/mL) | 79 | 498 | 1310 | 0.9 | 1.8 |
| NC(=O)c1cccc(-c2cc(OC(=O)NC3CCCC3)ccc2F)c1 [Example 5, [3-(3-carbamoylphenyl)-4-fluoro-phenyl] N-cyclopentylcarbamate] | – | – | – | – | 2.9 | 0.84 |
| CS(=O)(=O)c1cccc(-c2cc(OC(=O)NC3CCCCC3)ccc2F)c1 [Example 7, [4-Fluoro-3-(3-methylsulfonylphenyl)phenyl] N-cyclohexylcarbamate] | – | – | – | – | 8.9 | 4.9 |
| NS(=O)(=O)c1cccc(-c2cc(OC(=O)NC3CCCCC3)ccc2F)c1 [Example 2, [4-fluoro-3-(3-sulfamoylphenyl)phenyl] N-cyclohexylcarbamate] | 28 (≈ 11 µg/mL) | 35 | 746 | 867 | 0.7 | 11 |
| CS(=O)(=O)c1cccc(-c2cc(OC(=O)NC3CCCCC3)ccc2OC(F)F)c1 [Example 11, [4-(difluoromethoxy)-3-(3-methylsulfonylphenyl)phenyl] N-cyclohexylcarbamate] | 12 (≈ 5.27 µg/mL) | – | – | – | 2.9 | 6.5 |
| NC(=O)c1cccc(-c2cc(F)cc(OC(=O)NC3CCCCC3)c2)c1 [Example 12, [3-(3-Carbamoylphenyl)-5-fluoro-phenyl] N-cyclohexylcarbamate] | – | – | – | – | 0.23 | 0.87 |
| NC(=O)c1cccc(-c2cccc(OC(=O)NC3CCC3)c2)c1 [[drawing 131] comparison compound, reference compound] | 6 (≈ 1.86 µg/mL) | 39 | 891 | 1160 | – | – |
| NC(=O)c1cccc(-c2cccc(OC(=O)NC3CCCCC3)c2F)c1 [Example 13, [3-(3-Carbamoylphenyl)-2-Fluoro-Phenyl] N-Cyclohexylcarbamate] | – | – | – | – | 1.9 | 0.89 |
| NS(=O)(=O)c1cccc(-c2cccc(OC(=O)NC3CCCCC3)c2)c1 [[drawing 129] comparison compound, reference compound] | 7 (≈ 2.62 µg/mL) | 21 | 725 | 502 | – | – |
| CNC(=O)c1cccc(-c2cc(OC(=O)NC3CCCC3)ccc2F)c1 [Example 4, [4-fluoro-3-[3-(methylcarbamoyl)phenyl]phenyl] N-cyclopentylcarbamate] | 96 (≈ 34.2 µg/mL) | – | – | – | 3.9 | 2.9 |
| NS(=O)(=O)c1cccc(-c2cc(OC(=O)NC3CCCCC3)ccc2OC(F)F)c1 [Example 10, [4-(difluoromethoxy)-3-(3-sulfamoylphenyl)phenyl] N-cyclohexylcarbamate] | – | – | – | – | 8.2 | 9.2 |
